Experimental findings from patent publication US10285989B2, “Pyrimidinone amide compounds as PDE2 inhibitors” (Merck Sharp & Dohme Corp., priority 2015, dated 2019) are described below.

Where two headings read alike, the source gives them in different places.

Data set [1] addresses human PDE2A1 (Homo sapiens (Human), UniProt O00408). As to the kind of experiment: PDE2 IMAP FP inhibition assay, human PDE2A1 (selectivity panel format). The format is biochemical. A digest of the protocol: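 IMAP fluorescence polarization assay; substrate 50 nM FAM-cAMP with 1000 nM cGMP, enzyme at ~20% conversion, in 10 mM Tris pH 7.2, 10 mM MgCl2, 1 mM DTT, 0.01% Tween-20. 60 min room temperature, stopped with IMAP binding reagent, 1 h, then parallel/perpendicular fluorescence read.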

Data set [2] deals with P-glycoprotein (P-gp, rat Mdr1a) (Rattus norvegicus, UniProt Q6PSM0). Nature of the data set: P-gp transport, experimental BA/AB ratio, rat LLC-Mdr1a. The data set is classed as in vitro ADME. The following applies: LLC-PK1; rat LLC-Mdrla; 1 μM substrate concentration. From the text: (§1) See Doan et al. “Passive permeability and P-glycoprotein-mediated efflux differentiate central nervous system (CNS) and non-CNS marketed drugs”, J. Pharm. Exper. […] Desirable human BA/AB ratio is less than 2.0. […] See, for example, Desai, et al. Integration of in Silico and in Vitro Tools for Scaffold Optimization during Drug Discovery: Predicting P-glycoprotein Efflux” Mol. Pharmac.
P-glycoprotein (P-gp, rat Mdr1a), sequence (Q6PSM0 1-1272): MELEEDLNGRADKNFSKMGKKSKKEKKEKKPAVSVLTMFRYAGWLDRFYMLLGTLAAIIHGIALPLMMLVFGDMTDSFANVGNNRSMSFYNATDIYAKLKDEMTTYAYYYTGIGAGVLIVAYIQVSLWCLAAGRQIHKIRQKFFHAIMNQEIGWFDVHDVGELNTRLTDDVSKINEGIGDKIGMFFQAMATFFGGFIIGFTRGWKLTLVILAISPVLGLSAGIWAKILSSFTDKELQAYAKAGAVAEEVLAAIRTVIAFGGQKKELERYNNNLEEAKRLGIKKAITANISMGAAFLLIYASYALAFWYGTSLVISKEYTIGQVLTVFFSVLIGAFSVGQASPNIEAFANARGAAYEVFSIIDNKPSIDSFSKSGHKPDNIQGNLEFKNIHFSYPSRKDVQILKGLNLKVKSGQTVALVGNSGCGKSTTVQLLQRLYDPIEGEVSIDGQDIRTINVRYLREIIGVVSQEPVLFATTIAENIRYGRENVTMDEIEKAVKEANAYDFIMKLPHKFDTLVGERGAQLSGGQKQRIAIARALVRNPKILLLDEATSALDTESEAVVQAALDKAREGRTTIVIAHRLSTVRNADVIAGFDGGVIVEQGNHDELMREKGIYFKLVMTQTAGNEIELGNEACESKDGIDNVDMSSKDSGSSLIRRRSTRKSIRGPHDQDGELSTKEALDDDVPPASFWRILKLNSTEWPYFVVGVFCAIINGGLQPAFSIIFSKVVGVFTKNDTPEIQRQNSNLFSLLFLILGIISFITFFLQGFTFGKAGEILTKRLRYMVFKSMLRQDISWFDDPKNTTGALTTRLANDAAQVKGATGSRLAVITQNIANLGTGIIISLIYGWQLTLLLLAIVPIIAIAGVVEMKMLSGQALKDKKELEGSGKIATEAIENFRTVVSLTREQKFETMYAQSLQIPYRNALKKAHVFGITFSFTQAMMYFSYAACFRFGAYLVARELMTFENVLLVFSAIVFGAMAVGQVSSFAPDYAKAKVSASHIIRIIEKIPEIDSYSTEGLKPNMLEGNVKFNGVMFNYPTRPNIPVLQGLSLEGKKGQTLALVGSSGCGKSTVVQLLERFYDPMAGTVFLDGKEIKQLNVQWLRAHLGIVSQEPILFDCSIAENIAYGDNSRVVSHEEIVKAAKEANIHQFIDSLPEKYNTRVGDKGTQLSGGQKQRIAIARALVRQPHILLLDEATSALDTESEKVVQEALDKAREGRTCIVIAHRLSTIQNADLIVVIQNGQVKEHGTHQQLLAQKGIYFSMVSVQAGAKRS

Data set [3] has as its target Rhesus PDE2A3 (Macaca mulatta, UniProt B3VTJ2). As to the kind of experiment: PDE2 fluorescence polarization (IMAP FP) inhibition assay, rhesus PDE2A3. The data set is classed as biochemical, rhesus macaque.
Data set [4] concerns the target P-glycoprotein (P-gp) (Homo sapiens (Human), UniProt P08183). As to the kind of experiment: P-gp transport, experimental BA/AB ratio, human. The format is in vitro ADME. The settings on record: LLC-PK1, 1 μM substrate concentration.
From the text: as §1

The mark [5] stands for this setting: Lab B, read-out: Human PDE2 Ki (nM) - Lab B.
The mark [6] stands for this setting: Lab B, read-out: Rhesus PDE2 Ki (nM) - Lab B.
[7] abbreviates: Lab A, read-out: Human PDE2 Ki (nM) - Lab A.
The mark [8] stands for this setting: Lab A, read-out: Rhesus PDE2 Ki (nM) - Lab A.

P-glycoprotein (P-gp), sequence (P08183 whole entry): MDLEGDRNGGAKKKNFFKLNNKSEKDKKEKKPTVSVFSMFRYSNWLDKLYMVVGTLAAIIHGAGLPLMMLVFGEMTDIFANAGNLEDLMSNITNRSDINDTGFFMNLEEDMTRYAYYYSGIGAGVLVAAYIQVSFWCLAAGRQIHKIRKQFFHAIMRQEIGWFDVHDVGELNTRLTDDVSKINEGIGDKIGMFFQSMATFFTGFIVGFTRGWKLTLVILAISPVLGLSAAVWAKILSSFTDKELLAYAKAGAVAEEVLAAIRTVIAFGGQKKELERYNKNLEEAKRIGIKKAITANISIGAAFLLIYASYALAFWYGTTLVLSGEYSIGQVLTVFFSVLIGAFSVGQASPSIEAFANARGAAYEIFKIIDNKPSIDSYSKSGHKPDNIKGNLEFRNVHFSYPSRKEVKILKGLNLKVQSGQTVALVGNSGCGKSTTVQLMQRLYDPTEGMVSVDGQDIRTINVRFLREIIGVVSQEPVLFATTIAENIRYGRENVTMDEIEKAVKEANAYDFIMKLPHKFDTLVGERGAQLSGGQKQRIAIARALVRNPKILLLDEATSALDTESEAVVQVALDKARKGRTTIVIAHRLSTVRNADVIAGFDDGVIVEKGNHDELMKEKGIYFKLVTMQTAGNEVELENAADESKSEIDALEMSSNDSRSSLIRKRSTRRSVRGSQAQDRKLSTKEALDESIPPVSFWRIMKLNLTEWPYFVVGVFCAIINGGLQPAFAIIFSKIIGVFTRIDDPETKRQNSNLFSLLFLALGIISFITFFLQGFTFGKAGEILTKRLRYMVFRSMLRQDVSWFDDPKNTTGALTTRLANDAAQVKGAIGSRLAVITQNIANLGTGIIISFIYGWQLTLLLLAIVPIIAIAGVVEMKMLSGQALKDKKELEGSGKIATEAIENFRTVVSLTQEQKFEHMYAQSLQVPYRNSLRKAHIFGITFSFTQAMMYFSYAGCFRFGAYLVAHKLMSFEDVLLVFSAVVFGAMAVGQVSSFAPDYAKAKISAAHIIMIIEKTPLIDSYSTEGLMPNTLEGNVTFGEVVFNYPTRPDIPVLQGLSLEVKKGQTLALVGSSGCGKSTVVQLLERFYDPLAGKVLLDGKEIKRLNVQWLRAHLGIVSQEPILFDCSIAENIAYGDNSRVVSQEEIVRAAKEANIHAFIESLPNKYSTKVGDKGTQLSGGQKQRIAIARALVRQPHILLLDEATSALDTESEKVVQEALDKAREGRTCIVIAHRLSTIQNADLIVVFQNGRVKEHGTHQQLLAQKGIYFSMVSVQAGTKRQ
human PDE2A1, sequence (O00408 other isoform, or with tags, fused parts or gaps): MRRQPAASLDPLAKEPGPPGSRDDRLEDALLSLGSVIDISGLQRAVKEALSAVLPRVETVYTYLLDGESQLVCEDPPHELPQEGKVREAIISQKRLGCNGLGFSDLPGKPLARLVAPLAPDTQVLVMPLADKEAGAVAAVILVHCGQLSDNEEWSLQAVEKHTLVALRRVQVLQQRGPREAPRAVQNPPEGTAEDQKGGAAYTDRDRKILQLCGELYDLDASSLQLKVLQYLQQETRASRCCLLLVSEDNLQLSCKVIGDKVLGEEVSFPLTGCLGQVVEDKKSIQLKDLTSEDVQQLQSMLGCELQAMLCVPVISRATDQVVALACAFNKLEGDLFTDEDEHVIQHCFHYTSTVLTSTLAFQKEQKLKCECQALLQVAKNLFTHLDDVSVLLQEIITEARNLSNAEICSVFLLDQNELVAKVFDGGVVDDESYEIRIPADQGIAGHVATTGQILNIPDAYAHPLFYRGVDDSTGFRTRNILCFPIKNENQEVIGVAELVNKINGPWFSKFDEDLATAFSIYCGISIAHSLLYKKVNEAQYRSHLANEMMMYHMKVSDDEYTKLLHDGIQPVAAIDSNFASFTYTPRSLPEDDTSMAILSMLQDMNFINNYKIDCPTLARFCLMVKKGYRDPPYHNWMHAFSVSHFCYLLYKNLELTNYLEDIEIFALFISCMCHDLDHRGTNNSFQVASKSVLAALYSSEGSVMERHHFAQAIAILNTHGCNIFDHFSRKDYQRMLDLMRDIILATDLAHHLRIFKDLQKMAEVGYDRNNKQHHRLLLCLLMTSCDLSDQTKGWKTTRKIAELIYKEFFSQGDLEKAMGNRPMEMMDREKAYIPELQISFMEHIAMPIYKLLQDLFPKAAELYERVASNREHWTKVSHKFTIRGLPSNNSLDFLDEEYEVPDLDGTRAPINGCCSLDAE
Rhesus PDE2A3, sequence (B3VTJ2 1-941): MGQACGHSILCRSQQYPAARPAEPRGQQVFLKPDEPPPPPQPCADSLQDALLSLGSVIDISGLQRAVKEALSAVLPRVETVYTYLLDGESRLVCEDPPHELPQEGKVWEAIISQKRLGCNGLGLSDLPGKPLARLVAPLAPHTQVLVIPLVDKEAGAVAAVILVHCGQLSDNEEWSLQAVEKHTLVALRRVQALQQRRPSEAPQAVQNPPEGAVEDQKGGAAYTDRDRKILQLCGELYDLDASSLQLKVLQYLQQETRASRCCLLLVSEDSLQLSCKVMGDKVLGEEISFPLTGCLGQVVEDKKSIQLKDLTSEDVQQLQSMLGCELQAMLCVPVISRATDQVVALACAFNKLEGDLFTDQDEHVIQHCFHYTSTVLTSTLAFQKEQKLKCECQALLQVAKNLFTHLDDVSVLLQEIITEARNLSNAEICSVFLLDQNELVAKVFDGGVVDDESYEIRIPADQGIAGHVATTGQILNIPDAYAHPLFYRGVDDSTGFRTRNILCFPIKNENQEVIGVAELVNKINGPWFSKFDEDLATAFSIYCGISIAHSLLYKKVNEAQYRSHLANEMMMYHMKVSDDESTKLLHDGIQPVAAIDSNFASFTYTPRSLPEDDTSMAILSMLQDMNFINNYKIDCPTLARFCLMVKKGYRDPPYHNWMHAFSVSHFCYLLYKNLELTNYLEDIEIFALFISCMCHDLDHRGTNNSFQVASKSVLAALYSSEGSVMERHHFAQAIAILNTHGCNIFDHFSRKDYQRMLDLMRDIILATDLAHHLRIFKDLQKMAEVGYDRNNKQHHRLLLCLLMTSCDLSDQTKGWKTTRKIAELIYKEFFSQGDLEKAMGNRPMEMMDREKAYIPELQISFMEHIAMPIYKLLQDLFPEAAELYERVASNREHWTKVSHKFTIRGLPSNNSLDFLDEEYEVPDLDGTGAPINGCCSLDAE

In general, Ki refers to the equilibrium dissociation constant of an inhibitor or competing ligand from its target. What is called efflux ratio is the permeability from basolateral to apical divided by that in the opposite direction, in the common usage. As to `CC(C)(C)[C@@H](NC(=O)c1cc(=O)[nH]c(N2CC[C@H](F)C2)n1)c1ccc(C(F)(F)F)cc1` [Example 169, N-{(1R)-2,2-dimethyl-1-[4-(trifluoromethyl)phenyl]propyl}-2-[(3S)-3-fluoropyrrolidin-1-yl]-6-oxo-1,6-dihydropyrimidine-4-carboxamide], the Ki was determined as 0.17 nM in data set [1] (setting [5]) and 0.14 nM in data set [3] (setting [6]). In addition, the values for the efflux ratio at 1 μM in data set [2] and in data set [4] were 9.8 and 2.5, respectively.
`CN(C)c1nc(C(=O)N[C@@H](c2ccc(C(F)(F)F)cc2)C2(C)CC2)cc(=O)[nH]1` [Example 43, 2-(dimethylamino)-N-{(R)-(1-methylcyclopropyl)[4-(trifluoromethyl)phenyl]methyl}-6-oxo-1,6-dihydropyrimidine-4-carboxamide]: the Ki in data set [1] (setting [5]) amounted to 0.32 nM; in data set [3] (setting [6]), 0.23 nM. Besides, the efflux ratio at 1 μM in data set [2] worked out at 2.3; in data set [4], 0.7.
Consider `CC(C)C(C)(NC(=O)c1cc(=O)[nH]c(N(C)C)n1)c1ccc(S(F)(F)(F)(F)F)cc1` (single isomer, unassigned) [Example 173, (S)- or (R)-2-(dimethylamino)-N-{1,2-dimethyl-1-[4-(pentafluoro-λ^6-sulfanyl)phenyl]propyl}-6-oxo-1,6-dihydropyrimidine-4-carboxamide], for which the Ki in data set [1] (setting [5]) is 6.5 nM; in data set [3] (Rhesus PDE2 Ki (nM) - Lab B, Lab B), 6.6 nM. The efflux ratio at 1 μM in data set [2] turned out to be 3.6; in data set [4] it was 0.8.
In the case of `O=C(N[C@@H](c1ccc(C(F)(F)F)cc1)C1CC1)c1cc(=O)[nH]c(N2CCCC2)n1` [Example 26], the Ki came to 0.34 nM in data set [1] (setting [7]) and 1.4 nM in data set [3] (setting [8]). The efflux ratio at 1 μM came out at 4.5 in data set [2] and 0.9 in data set [4].
Regarding `CN(C)c1nc(C(=O)N[C@@H](c2ccc(SC(F)(F)F)cc2)C(C)(C)C)cc(=O)[nH]1` [Example 103, 2-(dimethylamino)-N-[(1R)-2,2-dimethyl-1-{4-[(trifluoromethyl)sulfanyl]phenyl}propyl]-6-oxo-1,6-dihydropyrimidine-4-carboxamide], the Ki in data set [1] (setting [5]) and in data set [3] (setting [6]) was 0.12 nM each time. The efflux ratio at 1 μM in data set [2] amounted to 8.2; in data set [4], 2.2.
For `CC[C@@H](NC(=O)c1cc(=O)[nH]c(N(C)C)n1)c1ccc(S(F)(F)(F)(F)F)cc1` [Example 5, (R)-2-(dimethylamino)-6-oxo-N-(1-(4-(pentafluoro-λ^6-sulfanyl)phenyl)propyl)-1,6-dihydropyrimidine-4-carboxamide], the results for the Ki in data set [1] (setting [5]), in data set [3] (setting [8]) and in data set [3] (setting [6]) were 1.3 nM, 0.69 nM and 1.5 nM, respectively. The efflux ratio at 1 μM in data set [2] was found to be 3.6; in data set [4], 0.5.
Take `CN(C)c1nc(C(=O)N[C@@H](c2ccc(C(C)(F)F)cc2)C(C)(C)C)cc(=O)[nH]1` [Example 76, N-{(1R)-1-[4-(1,1-difluoroethyl)phenyl]-2,2-dimethylpropyl}-2-(dimethylamino)-6-oxo-1,6-dihydropyrimidine-4-carboxamide]: the Ki in data set [1] (setting [5]) came out at 0.12 nM; in data set [3] (setting [6]), 0.11 nM. Moreover, the efflux ratio at 1 μM in data set [2] worked out at 4.5; in data set [4], 1.6.
In the same order, the values of `CN(C)c1nc(C(=O)N[C@@H](c2ccc(C(F)(F)F)c(F)c2)C(C)(C)C)cc(=O)[nH]1` [Example 102, 2-(dimethylamino)-N-{(1R)-1-[3-fluoro-4-(trifluoromethyl)phenyl]-2,2-dimethylpropyl}-6-oxo-1,6-dihydropyrimidine-4-carboxamide] are 0.2 nM, 0.18 nM, 5.7 and 1.4.
Take `CC(C)[C@@H](NC(=O)c1cc(=O)[nH]c(N(C)C)n1)c1ccc(C(F)(F)F)cc1` [Example 47, 2-(dimethylamino)-N-{(1R)-2-methyl-1-[4-(trifluoromethyl)phenyl]propyl}-6-oxo-1,6-dihydropyrimidine-4-carboxamide]: the Ki in data set [1] (setting [5]) amounted to 0.44 nM; in data set [3] (setting [6]), 0.43 nM. Also, the efflux ratio at 1 μM in data set [2] worked out at 2.1; in data set [4], 0.6.
Regarding `CC(C)[C@@H](NC(=O)c1cc(=O)[nH]c(N(C)C)n1)c1ccc(SC(F)(F)F)cc1` [Example 30, 2-(dimethylamino)-N-[(1R)-2-methyl-1-{4-[(trifluoromethyl)sulfanyl]phenyl}propyl]-6-oxo-1,6-dihydropyrimidine-4-carboxamide], the Ki in data set [1] (setting [7]) is not above 5.1 nM; in data set [1] (setting [5]), 0.37 nM; in data set [3] (setting [8]), 0.19 nM; in data set [3] (setting [6]), 0.22 nM. Moreover, the efflux ratio at 1 μM in data set [2] amounted to 2.6; in data set [4], 0.4.
For the compound `COc1ccc(OCCCOc2nc(C(=O)NC(C)c3ccc(C(F)(F)F)cc3)cc(=O)[nH]2)cc1` (stereo not shown) [Example 194, 2-[3-(4-methoxyphenoxy)propoxy]-6-oxo-N-{1-[4-(trifluoromethyl)phenyl]ethyl}-1,6-dihydropyrimidine-4-carboxamide], the Ki was 4.4 nM in data set [1] (setting [7]) and approximately 5.2 nM in data set [3] (setting [8]). Also, the efflux ratio at 1 μM in data set [2] is 8.4; in data set [4], 1.
For the compound `CN(C)c1nc(C(=O)NC(C)(C)c2ccc(C(F)(F)F)cc2Cl)cc(=O)[nH]1` [Example 80, N-{1-[2-chloro-4-(trifluoromethyl)phenyl]-1-methylethyl}-2-(dimethylamino)-6-oxo-1,6-dihydropyrimidine-4-carboxamide], the Ki in data set [1] (setting [5]) is 0.79 nM; in data set [3] (setting [6]), 0.65 nM. Moreover, the values for the efflux ratio at 1 μM in data set [2] and in data set [4] were 1.7 and 0.4, respectively.
In the same order, the values of `CN(C)c1nc(C(=O)N[C@@H](c2ccc(C(F)F)cc2F)C(C)(C)C)cc(=O)[nH]1` [Example 73, N-{(1R)-1-[4-(difluoromethyl)-2-fluorophenyl]-2,2-dimethylpropyl}-2-(dimethylamino)-6-oxo-1,6-dihydropyrimidine-4-carboxamide] are 0.17 nM, 0.26 nM, 6.9 and 1.2.
Take `O=C(NC1(c2ccc(C(F)(F)F)c(F)c2)CC1)c1cc(=O)[nH]c(N2CCCC2)n1` [Example 1, N-(1-(3-fluoro-4-(trifluoromethyl)phenyl)cyclopropyl)-6-oxo-2-(pyrrolidin-1-yl)-1,6-dihydropyrimidine-4-carboxamide]: the values for the Ki in data set [1] (setting [7]) and in data set [3] (setting [8]) were 0.48 nM and 1.3 nM, respectively. The figures for the efflux ratio at 1 μM in data set [2] and in data set [4] were 7.2 and 0.8, respectively.
With `CN(C)c1nc(C(=O)N[C@@H](c2ccc(OC(F)(F)F)cc2)C2CC2)cc(=O)[nH]1` [Example 107, N-{(1R)-cyclopropyl[4-(trifluoromethoxy)phenyl]methyl}-2-(dimethylamino)-6-oxo-1,6-dihydropyrimidine-4-carboxamide], the Ki in data set [1] (setting [5]) was 1.7 nM; in data set [3] (setting [8]) it was 0.93 nM; in data set [3] (setting [6]) it was 2.2 nM. In addition, the efflux ratio at 1 μM in data set [2] came to 2.2; in data set [4], 0.4.
`CC(C)[C@@H](NC(=O)c1cc(=O)[nH]c(N(C)C)n1)c1ccc(SC(F)(F)F)c(F)c1` [Example 150, 2-(dimethylamino)-N-[(1R)-1-{3-fluoro-4-[(trifluoromethyl)sulfanyl]phenyl}-2-methylpropyl]-6-oxo-1,6-dihydropyrimidine-4-carboxamide]: the figures for the Ki in data set [1] (setting [5]), in data set [3] (setting [8]) and in data set [3] (setting [6]) were 0.29 nM, 0.24 nM and 0.29 nM, respectively. For the same compound, the results for the efflux ratio at 1 μM in data set [2] and in data set [4] were 4.4 and 1.1, respectively.
On to `CN(C)c1nc(C(=O)NC(c2ccc(S(F)(F)(F)(F)F)cc2F)C(C)(C)C)cc(=O)[nH]1` (single isomer, unassigned) [Example 128, (R)- or (S)-2-(dimethylamino)-N-{1-[2-fluoro-4-(pentafluoro-λ^6-sulfanyl)phenyl]-2,2-dimethylpropyl}-6-oxo-1,6-dihydropyrimidine-4-carboxamide], for which the inhibitory constant (Ki) in data set [1] (setting [5]) was 0.15 nM; in data set [3] (setting [6]), 0.22 nM. Moreover, the efflux ratio at 1 μM in data set [2] amounted to 4.8; in data set [4] it was 1.4.
`CC[C@@H](NC(=O)c1cc(=O)[nH]c(N(C)C)n1)c1ccc(OC(F)(F)F)cc1` [Example 105, 2-(dimethylamino)-6-oxo-N-{(1R)-1-[4-(trifluoromethoxy)phenyl]propyl}-1,6-dihydropyrimidine-4-carboxamide]: the Ki amounted to 1.6 nM in data set [1] (setting [5]), 1 nM in data set [3] (setting [8]) and 1.8 nM in data set [3] (setting [6]). The efflux ratio at 1 μM in data set [2] amounted to 3.7; in data set [4] it was 0.5.
In the case of `C[C@@H](NC(=O)c1cc(=O)[nH]c(N2CCCC2)n1)c1ccc(C(F)(F)F)cc1` [Example 6, (R)-6-oxo-2-(pyrrolidin-1-yl)-N-(1-(4-(trifluoromethyl)phenyl)ethyl)-1,6-dihydropyrimidine-4-carboxamide], the values for the Ki in data set [1] (setting [7]) and in data set [3] (setting [8]) were 1.7 nM and 2.5 nM, respectively. Further, the efflux ratio at 1 μM was found to be 3.2 in data set [2] and 0.5 in data set [4].
